The values that follow come from patent publication US11339130B1 (Blade Therapeutics, Inc., priority 2016, dated 2022).

The target in one experiment is T1, Human Calpain 2/NS1 (Homo sapiens, UniProt P17655).
T1 sequence (P17655 1-700): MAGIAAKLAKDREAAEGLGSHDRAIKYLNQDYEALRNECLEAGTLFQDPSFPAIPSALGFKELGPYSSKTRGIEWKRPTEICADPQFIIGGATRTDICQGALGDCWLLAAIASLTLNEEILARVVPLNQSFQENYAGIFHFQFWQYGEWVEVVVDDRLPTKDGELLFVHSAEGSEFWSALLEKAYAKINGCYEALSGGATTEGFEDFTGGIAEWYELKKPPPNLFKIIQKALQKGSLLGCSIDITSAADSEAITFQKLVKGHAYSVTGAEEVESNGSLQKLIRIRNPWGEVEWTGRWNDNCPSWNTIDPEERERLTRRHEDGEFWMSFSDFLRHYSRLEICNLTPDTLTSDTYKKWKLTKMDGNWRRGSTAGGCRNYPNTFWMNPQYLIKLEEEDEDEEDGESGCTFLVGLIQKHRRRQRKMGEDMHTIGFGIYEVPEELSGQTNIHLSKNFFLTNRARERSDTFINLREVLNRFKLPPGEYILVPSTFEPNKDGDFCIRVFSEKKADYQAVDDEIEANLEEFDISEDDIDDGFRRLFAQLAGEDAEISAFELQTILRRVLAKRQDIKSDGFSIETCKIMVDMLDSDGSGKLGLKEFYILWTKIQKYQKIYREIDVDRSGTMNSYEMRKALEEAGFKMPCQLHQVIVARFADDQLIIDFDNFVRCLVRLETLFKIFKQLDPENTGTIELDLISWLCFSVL
T1 sequence (P04632 1-268 partner): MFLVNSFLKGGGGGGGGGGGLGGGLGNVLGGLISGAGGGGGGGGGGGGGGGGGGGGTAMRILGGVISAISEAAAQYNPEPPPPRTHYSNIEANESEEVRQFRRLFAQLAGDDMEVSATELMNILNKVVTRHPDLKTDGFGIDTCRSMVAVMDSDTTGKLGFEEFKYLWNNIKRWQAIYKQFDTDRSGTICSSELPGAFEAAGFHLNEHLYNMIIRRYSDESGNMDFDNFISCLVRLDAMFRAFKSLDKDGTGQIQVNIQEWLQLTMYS
The experiment in a line: Calpain inhibition continuous fluorescence (FRET) assay, Human Calpain 2/NS1. The note with it: read-out: Human Calpain 2/NS1 IC50. In kind it is biochemical. In short, it runs like this: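 Inhibitors were preincubated with calpain in 50 mM Tris pH 7.5, 100 mM NaCl, 1 mM DTT at 25C. Reactions were started with 5-FAM/QXL 520 FRET peptide substrate plus CaCl2 and read at 490/520 nm for 10 min. IC50s came from 4-parameter fits of slope rates (1-5 min).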

Experiment [1] concerns Bleomycin-induced pulmonary fibrosis. Kind of experiment: Bleomycin-induced pulmonary fibrosis in mice (14 d). Also on record: concentration or dose not given beside the values. In kind it is in vivo. An excerpt:
The method for inducing pulmonary fibrosis in mice is described in Current Protocols in Pharmacology: 5.46.1, entitled “Mouse Models of Bleomycin-induced Pulmonary Fibrosis”. In order to induce pulmonary fibrosis, 6-8 week old C57B1/6 mice or Wistar rats are instilled once oropharyngeally with ˜1.5 U/kg of bleomycin sulfate (Calbiochem, Billerica, Mass.). Briefly, for oropharyngeal administration of bleomycin, mice or rats are anesthetized with isofluorane and then suspended on its back at a˜60 degree angle on an inclined surface with a rubber band running under the upper incisors. The airway is opened while securing the tongue with one arm of padded forceps and bleomycin is administered into the back of the oral cavity with a syringe. The animal's tongue and mouth were held open until the liquid disappeared from the oral cavity. The animal was then returned to its cage and monitored until fully recovered from the anesthesia. The study is terminated on day 14-28 for oropharyngeally administered bleomycin in mice and rats. All animals are euthanized at the termination of the studies by cervical dislocation for gross necropsy, and blood collected by cardiac puncture. The lungs from each animal are dissected from the animal and weighed. The BAL cells and fluid are collected by lavaging the lung twice with 0.5 ml Hanks Balanced Salt Solution (HBSS; VWR, Radnor, Pa.). After collection of BAL cells and fluid, lungs are dissected and removed from each animal. Whole lungs are inflated with 10% NBF and then fixed in 10% NBF for histology. Severity of fibrosis in the lungs is evaluated using a modified Ashcroft score (Hubner, Biotechniques, 2008) and subjective fibrosis scores. Lung sections were graded by averaging 5 microscopic fields at 20× on an Ashcroft scale as follows: Grade 0=normal lung; Grade 1=minimally detectable thickening of alveolar walls; Grade 2=Mild thickening of alveolar walls. Grade 3=moderate contiguous thickening of walls with fibrous nodules; Grade 4=Thickened septae and confluent fibrotic masses that total less than 10% of microscopic field. Grade 5=increased fibrosis with definite damage to lung structure and formation of fibrous bands or small fibrous masses between 10 and 50% of microscopic field; Grade 6=Large contiguous fibrotic masses consolidating more than 50% of microscopic field. Grade 7=severe distortion of structure and large fibrous areas; Grade 8=total fibrous obliteration of lung within microscopic field. Each slide was examined at 20× magnification and the score for 5 separate representative fields was averaged for each animal. Subjective scores (H&E and Trichrome-stained slides) were evaluated at 2× magnification for an overall assessment of pathologic change. A score of 0=no detectible findings to 5=complete involvement of consolidation. Scores in each group were averaged and standard error was calculated using Excel 2010. Dense, organized inflammatory exudates were scored as fibrosis. Other tissues were evaluated microscopically and scored routinely.

pIC50: −log10 of the molar value. Where two headings read alike, the source gives them in different places. Bounds are passed on as bounds.

For the compound `Cc1nc(-c2cccc(F)c2)c(C(=O)NC(Cc2ccccc2)C(=O)C(N)=O)o1` (stereo not drawn) [Compound 404, N-(4-amino-3,4-dioxo-1-phenylbutan-2-yl)-4-(3-fluorophenyl)-2-methyloxazole-5-carboxamide], the pIC50 on Human Calpain 2/NS1 is more than 5.52. For the same compound, the “% reduction compared to vehicle” value in experiment [1] was −24%.
The like results for `Cn1cc(C(=O)NC(Cc2ccccc2)C(=O)C(N)=O)c(-c2ccccc2F)n1` (stereo not drawn) [Compound 484, N-(4-amino-3,4-dioxo-1-phenylbutan-2-yl)-3-(2-fluorophenyl)-1-methyl-1H-pyrazole-4-carboxamide] were, in that order, more than 5.52 and −35%.
Regarding `Cc1nc(-c2ccccc2)c(C(=O)NC(Cc2ccccc2)C(=O)C(N)=O)o1` (stereo not drawn) [Compound 357, N-(4-amino-3,4-dioxo-1-phenylbutan-2-yl)-2-methyl-4-phenyloxazole-5-carboxamide], the pIC50 at Human Calpain 2/NS1 is more than 5.52. Besides, the “% reduction compared to vehicle” value in experiment [1] is given as −13%.
For the compound `NC(=O)C(=O)[C@H](Cc1ccccc1)NC(=O)c1cn(C2CC2)nc1-c1ccccc1` [Compound 250, (S)—N-(4-amino-3,4-dioxo-1-phenylbutan-2-yl)-1-cyclopropyl-3-phenyl-1H-pyrazole-4-carboxamide], the pIC50 at Human Calpain 2/NS1 (Column B) is more than 5.52.
The same measure, in the same setting: under `Cn1cc(C(=O)N[C@@H](Cc2ccccc2)C(=O)C(N)=O)c(-c2ccccc2)n1` [Compound 32, (S)—N-(4-amino-3,4-dioxo-1-phenylbutan-2-yl)-1-methyl-3-phenyl-1H-pyrazole-4-carboxamide] stands more than 5.52; under `CCCC[C@H](NC(=O)c1oc(C)nc1-c1ccccc1)C(=O)C(N)=O` [Compound 265, (S)—N-(1-amino-1,2-dioxoheptan-3-yl)-2-methyl-4-phenyloxazole-5-carboxamide], more than 5.52.
For the compound `Cc1cc(C(=O)NC(Cc2ccccc2)C(=O)C(N)=O)n(-c2ccccn2)n1` (stereo not drawn) [Compound 495, N-(4-amino-3,4-dioxo-1-phenylbutan-2-yl)-3-methyl-1-(pyridin-2-yl)-1H-pyrazole-5-carboxamide], the pIC50 at Human Calpain 2/NS1 was more than 5.52. For the same compound, in experiment [1], the “% reduction compared to vehicle” value is given as −27%.
For the compound `Cl.Cn1cc(C(=O)NC(Cc2ccccc2)C(=O)C(N)=O)c(-c2cccc(F)c2)n1` (stereo not drawn) [Compound 485, N-(4-amino-3,4-dioxo-1-phenylbutan-2-yl)-3-(3-fluorophenyl)-1-methyl-1H-pyrazole-4-carboxamide hydrochloride], the pIC50 at Human Calpain 2/NS1 is more than 5.52. In addition, the “% reduction compared to vehicle” value in experiment [1] is on record as −41%.
For `NC(=O)C(=O)C(Cc1ccccc1)NC(=O)c1cn(C(F)F)nc1-c1ccccc1` (stereo not drawn) [Compound 403, N-(4-amino-3,4-dioxo-1-phenylbutan-2-yl)-1-(difluoromethyl)-3-phenyl-1H-pyrazole-4-carboxamide] the same measures were more than 5.52 and −29%.
Consider `NC(=O)C(=O)[C@H](Cc1ccccc1)NC(=O)c1cnoc1-c1ccccc1` [Compound 60, (S)—N-(4-amino-3,4-dioxo-1-phenylbutan-2-yl)-5-phenylisoxazole-4-carboxamide], for which the pIC50 at Human Calpain 2/NS1 (Column B) was more than 5.52. Further, the “% reduction compared to vehicle” value in experiment [1] is recorded as −24%.
For the compound `NC(=O)C(=O)C(Cc1ccccc1)NC(=O)c1cn(C2CC2)nc1-c1ccccc1` (stereo not drawn) [Compound 406, N-(4-amino-3,4-dioxo-1-phenylbutan-2-yl)-1-cyclopropyl-3-phenyl-1H-pyrazole-4-carboxamide], the pIC50 at Human Calpain 2/NS1 is more than 5.52. Moreover, the “% reduction compared to vehicle” value in experiment [1] is reported as −25%.
As for `Cc1nc(-c2ccccc2F)c(C(=O)NC(Cc2ccccc2)C(=O)C(N)=O)o1` (stereo not drawn) [Compound 405, N-(4-amino-3,4-dioxo-1-phenylbutan-2-yl)-4-(2-fluorophenyl)-2-methyloxazole-5-carboxamide], the pIC50 at Human Calpain 2/NS1 was more than 5.52. Further, the “% reduction compared to vehicle” value in experiment [1] is −33%.
For the compound `NC(=O)C(=O)[C@H](Cc1ccccc1)NC(=O)c1nsnc1-c1ccccc1` [Compound 72, (S)—N-(4-amino-3,4-dioxo-1-phenylbutan-2-yl)-4-phenyl-1,2,5-thiadiazole-3-carboxamide], the pIC50 on Human Calpain 2/NS1 (Column B) was more than 5.52. Also, the “% reduction compared to vehicle” value in experiment [1] is −35%.
Turning to `NC(=O)C(=O)[C@H](Cc1ccccc1)NC(=O)c1snnc1-c1ccccc1` [Compound 44, (S)—N-(4-amino-3,4-dioxo-1-phenylbutan-2-yl)-4-phenyl-1,2,3-thiadiazole-5-carboxamide], on Human Calpain 2/NS1 (Column B), the pIC50 was more than 5.52.
